The results in this text go back to US20110275599A1, “USE OF COLD-STABILIZED METHYLATED VEGETABLE OILS AS AN AGRICULTURAL CHEMICAL COFORMULANT” (priority 2010, published 2011).

The nature of the data set: High throughput solubility screen in Permaflo methylated soybean oil. The class given is physicochemical. On the procedure: The solubility of several agricultural active ingredients in Permaflo methylated soybean oil was determined using a high throughput solubility screen.
Liquid handler was calibrated for each liquid and vials were tared. Active ingredients were melted or dissolved and then transferred into tared vials. Solvent was removed or active was allowed to crystallize before weighing. Permaflo methylated soybean oil was added in desired quantities; vials were weighed, and capped. Mixtures were agitated (220 rpm) for 48 hours at 0° C. […] Samples were held at 0° C. for 24 hours before imaging. Samples were transferred to shaker plate on bench and were agitated for 48 hours, before seeding, holding for 24 hours and imaging. Samples were then transferred to 40° C. shaker plate, agitated for 48 hours, seeded, held and then imaged again. All samples were imaged using normal light.

Molecules are shown by their SMILES.

Take `CCOP(=S)(OCC)Oc1nc(Cl)c(Cl)cc1Cl` [Chlorpyrifos]: the “solubility in Permaflo methylated soybean oil” value by setting is: (0° C.) 35%; (24° C.) 55%; (40° C.) above 60%.
For `Nc1c(Cl)c(F)nc(OCC(=O)O)c1Cl` [Fluroxypyr], the “solubility in Permaflo methylated soybean oil” value is recorded as 25% (0° C.), 35% (24° C.) and 55% (40° C.).
